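Test compounds were applied to cells in 96-well plates for 48 hours at 5 doses. At the GI50, growth is halved.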 Calls of active or inactive are those of the source. No stated cut-off is given here; in the data, active = GI50 up to about 1.1 µM and inactive = higher.
Key:
Experiment in all cases: DTP human tumour cell line panel, 48 h
786-0 = tested on: 786-0
CAKI-1 = tested on: CAKI-1
COLO 205 = tested on: COLO 205
HCT-15 = tested on: HCT-15
HOP-92 = tested on: HOP-92
M14 = tested on: M14
MOLT-4 = tested on: MOLT-4
Malme-3M = tested on: Malme-3M
NCI-H23 = tested on: NCI-H23
NCI-H522 = tested on: NCI-H522
OVCAR-5 = tested on: OVCAR-5
OVCAR-8 = tested on: OVCAR-8
SK-MEL-28 = tested on: SK-MEL-28
SK-MEL-2 = tested on: SK-MEL-2
SN12C = tested on: SN12C
UACC-62 = tested on: UACC-62
HCC 2998 = tested on: HCC 2998

| SMILES | GI50 (786-0) | GI50 (CAKI-1) | GI50 (COLO 205) | GI50 (HCT-15) | GI50 (HOP-92) | GI50 (M14) | GI50 (MOLT-4) | GI50 (Malme-3M) | GI50 (NCI-H23) | GI50 (NCI-H522) | GI50 (OVCAR-5) | GI50 (OVCAR-8) | GI50 (SK-MEL-28) | GI50 (SK-MEL-2) | GI50 (SN12C) | GI50 (UACC-62) | GI50 (HCC 2998) |
| --- | --- | --- | --- | --- | --- | --- | --- | --- | --- | --- | --- | --- | --- | --- | --- | --- | --- |
| COc1ccc(C23c4ccc(OC)cc4CC2(c2ccc([N+](=O)[O-])cc2)Cc2cc(OC)ccc23)cc1 (centres undefined) | > 100 µM (inactive) | > 27.2 µM (inactive) | > 36.2 µM (inactive) | > 93.5 µM | > 21.9 µM (inactive) | > 46.2 µM (inactive) | > 36.2 µM (inactive) | > 38.2 µM (inactive) | > 26.4 µM (inactive) | > 59.8 µM (inactive) | > 25.9 µM (inactive) | > 36.7 µM (inactive) | > 17.9 µM (inactive) | > 74.1 µM (inactive) | > 50.6 µM (inactive) | > 17.1 µM (inactive) |  |
| N#Cc1c([N+](=O)[O-])cc(C(F)(F)F)cc1[N+](=O)[O-] | 6.14 µM (inactive) | 4.57 µM (inactive) | 4.88 µM (inactive) | 8.89 µM | 1.81 µM (inactive) | 4.85 µM (inactive) | 2.08 µM (inactive) | 8.2 µM (inactive) | 7.94 µM (inactive) | 0.59 µM (active) | 18.1 µM (inactive) | 2.09 µM (inactive) | 8.73 µM (inactive) | 18.5 µM (inactive) | 14.1 µM (inactive) | 5.04 µM (inactive) |  |
| Cn1c2cccc3nnc4cccc(c4c32)n1C | > 100 µM (inactive) | 21.2 µM (inactive) | > 100 µM (inactive) | > 100 µM | > 100 µM (inactive) | > 100 µM (inactive) | > 100 µM (inactive) | > 100 µM (inactive) |  |  | > 100 µM (inactive) | > 100 µM (inactive) | > 100 µM (inactive) | > 100 µM (inactive) | > 100 µM (inactive) | > 100 µM (inactive) | > 100 µM (inactive) |
| CC(=O)Oc1cc(OC(C)=O)c2cc3c(cc2c1OC(C)=O)C(=O)C1(CCCC1)C3=O | 17.2 µM (inactive) | 11.4 µM (inactive) | 17.4 µM (inactive) | 17.8 µM | 15.1 µM (inactive) | 17.7 µM (inactive) | 3.18 µM (inactive) | 17.9 µM (inactive) | 17.7 µM (inactive) |  |  | 16.4 µM (inactive) | 15.6 µM (inactive) |  | 17.7 µM (inactive) | 15.8 µM (inactive) | 21.7 µM (inactive) |
| ON1CCc2c([nH]c3ccccc23)C1c1ccc(Cl)cc1 (centres undefined) | 32.1 µM (inactive) |  | 32.9 µM (inactive) |  | 16.8 µM (inactive) | 42.7 µM (inactive) | 21.4 µM (inactive) | 29.4 µM (inactive) | 21.9 µM (inactive) | 28.1 µM (inactive) | 31.3 µM (inactive) | 32.4 µM (inactive) | 36.4 µM (inactive) | 23.1 µM (inactive) | 26.1 µM (inactive) | 31 µM (inactive) | 23.8 µM (inactive) |
| CN(C)CCC(/C=C/c1ccccc1)=N\Nc1ccccc1 | 2.03 µM (inactive) |  | 1.96 µM (inactive) | 0.336 µM |  | 2.72 µM (inactive) | 0.667 µM (active) | 3.07 µM (inactive) | 3.97 µM (inactive) | 1.84 µM (inactive) | 1.98 µM (inactive) | 10.7 µM (inactive) | 1.8 µM (inactive) |  | 2.74 µM (inactive) | 0.617 µM (active) |  |
| O=c1c2ccc3cccc4c(=O)cc(c5ccccc15)-c2c34 | > 100 µM (inactive) | > 100 µM (inactive) | > 100 µM (inactive) | > 100 µM |  | > 100 µM (inactive) | 59.2 µM (inactive) | 30.5 µM (inactive) | 31.7 µM (inactive) | 76.9 µM (inactive) | > 100 µM (inactive) | 28.6 µM (inactive) | > 100 µM (inactive) | 22 µM (inactive) | > 100 µM (inactive) | > 100 µM (inactive) | > 100 µM (inactive) |
| COc1cc(C)c2c(c1)CN1CN2Cc2cc(OC)cc(C)c21 | 74.1 µM (inactive) | > 100 µM (inactive) | 57 µM (inactive) | 34.8 µM | 35.3 µM (inactive) | > 100 µM (inactive) | 45 µM (inactive) | 67.9 µM (inactive) | 45.8 µM (inactive) | > 100 µM (inactive) | 27.9 µM (inactive) | 85.7 µM (inactive) |  | 45.6 µM (inactive) | 46.3 µM (inactive) | 29.9 µM (inactive) |  |
| CCN(CC)CC(=O)N1CCc2c([nH]c3ccccc23)C1c1cccnc1 (centres undefined) | > 100 µM (inactive) | > 100 µM (inactive) |  | > 100 µM | 31.4 µM (inactive) | > 100 µM (inactive) | > 100 µM (inactive) |  | > 100 µM (inactive) | > 100 µM (inactive) | > 100 µM (inactive) | > 100 µM (inactive) | > 100 µM (inactive) |  | > 100 µM (inactive) | > 100 µM (inactive) | > 100 µM (inactive) |
| COc1nc(NC2OC(COC(C)=O)C(OC(C)=O)C(OC(C)=O)C2OC(C)=O)c2c(OC(C)=O)cc(=O)oc2n1 (centres undefined) | > 100 µM (inactive) | > 100 µM (inactive) | > 100 µM (inactive) | > 100 µM | > 100 µM (inactive) | > 100 µM (inactive) | > 100 µM (inactive) | > 100 µM (inactive) | > 100 µM (inactive) |  | > 100 µM (inactive) | > 100 µM (inactive) |  | > 100 µM (inactive) | > 100 µM (inactive) | > 100 µM (inactive) | > 100 µM (inactive) |
| CN/C=C(\C(=O)c1ccc(OC)c(OC)c1)c1ccc(OC)cc1 | 11.4 µM (inactive) |  | 17.8 µM (inactive) | 13.1 µM |  | 18.7 µM (inactive) | 19.9 µM (inactive) | > 10 µM (inactive) | 30.3 µM (inactive) | 17 µM (inactive) |  | 15 µM (inactive) | 19.5 µM (inactive) | 15.7 µM (inactive) | 15.3 µM (inactive) | 16.4 µM (inactive) | > 10 µM (inactive) |
| N#CCc1cccc(CC#N)c1Br | > 100 µM (inactive) | > 100 µM (inactive) | > 100 µM (inactive) | > 100 µM | 45.2 µM (inactive) | > 100 µM (inactive) | > 100 µM (inactive) | > 100 µM (inactive) | > 100 µM (inactive) | > 100 µM (inactive) | > 100 µM (inactive) | > 100 µM (inactive) |  | > 100 µM (inactive) | > 100 µM (inactive) | > 100 µM (inactive) |  |
| C[C@@H](CC(O)C1OC1(C)C)[C@@H]1CC[C@]2(C)C3=CCC4C(C)(C)C(O)CC[C@]4(C)C3CCC12C (some centres undefined) | 16 µM (inactive) |  | 21.3 µM (inactive) | 33.1 µM | 17.9 µM (inactive) | 13.9 µM (inactive) | 16 µM (inactive) | 13 µM (inactive) | 19.1 µM (inactive) | 11.8 µM (inactive) | 38 µM (inactive) | 26.5 µM (inactive) | 18.2 µM (inactive) | 18.6 µM (inactive) | 42.2 µM (inactive) | 14.8 µM (inactive) | 48.6 µM (inactive) |
| CC(=O)Oc1ccccc1 [ACETIC ACID PHENYL ESTER] | > 100 µM (inactive) | > 100 µM (inactive) |  | > 100 µM |  | > 100 µM (inactive) | > 100 µM (inactive) | > 100 µM (inactive) | > 100 µM (inactive) | > 100 µM (inactive) | > 100 µM (inactive) | > 100 µM (inactive) | > 100 µM (inactive) | > 100 µM (inactive) | > 100 µM (inactive) | > 100 µM (inactive) | > 10 µM (inactive) |
